The experiment deals with T1, PRC2 complex (EZH2 Y641F/EED/SUZ12/RbAp48/AEBP2) histone methyltransferase (Homo sapiens, UniProt Q15910, Y641F).
T1 construct: purchased Cisbio
Put plainly: PRC2 complex (EZH2 Y641F) activity assay, HTRF. The format is biochemical. The settings on record: H3(1-50) K27me1 substrate, SAM, 4 h at room temperature, read-out: IC50 (EZH2_Y641F).

T1 sequence (Q15910 whole entry Y641F): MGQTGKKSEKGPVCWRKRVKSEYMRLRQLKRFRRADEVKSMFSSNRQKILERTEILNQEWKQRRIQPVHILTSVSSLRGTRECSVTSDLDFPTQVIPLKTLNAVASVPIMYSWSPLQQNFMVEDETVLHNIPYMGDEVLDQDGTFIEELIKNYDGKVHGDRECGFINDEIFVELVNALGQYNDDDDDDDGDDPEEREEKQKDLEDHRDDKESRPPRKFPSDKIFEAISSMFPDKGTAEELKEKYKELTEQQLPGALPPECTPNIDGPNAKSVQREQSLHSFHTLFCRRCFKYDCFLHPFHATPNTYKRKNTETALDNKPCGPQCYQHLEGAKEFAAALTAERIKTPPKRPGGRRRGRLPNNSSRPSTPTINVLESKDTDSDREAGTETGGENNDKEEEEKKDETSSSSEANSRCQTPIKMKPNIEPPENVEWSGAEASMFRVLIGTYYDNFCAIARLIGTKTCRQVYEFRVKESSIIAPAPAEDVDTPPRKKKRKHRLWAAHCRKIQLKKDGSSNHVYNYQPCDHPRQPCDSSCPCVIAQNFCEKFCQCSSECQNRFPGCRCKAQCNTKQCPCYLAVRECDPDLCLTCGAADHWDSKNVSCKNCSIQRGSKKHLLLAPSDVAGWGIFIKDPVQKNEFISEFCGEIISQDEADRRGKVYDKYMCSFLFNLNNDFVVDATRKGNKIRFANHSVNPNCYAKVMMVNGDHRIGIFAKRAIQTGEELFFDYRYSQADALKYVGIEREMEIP
T1 sequence (O75530 whole entry partner): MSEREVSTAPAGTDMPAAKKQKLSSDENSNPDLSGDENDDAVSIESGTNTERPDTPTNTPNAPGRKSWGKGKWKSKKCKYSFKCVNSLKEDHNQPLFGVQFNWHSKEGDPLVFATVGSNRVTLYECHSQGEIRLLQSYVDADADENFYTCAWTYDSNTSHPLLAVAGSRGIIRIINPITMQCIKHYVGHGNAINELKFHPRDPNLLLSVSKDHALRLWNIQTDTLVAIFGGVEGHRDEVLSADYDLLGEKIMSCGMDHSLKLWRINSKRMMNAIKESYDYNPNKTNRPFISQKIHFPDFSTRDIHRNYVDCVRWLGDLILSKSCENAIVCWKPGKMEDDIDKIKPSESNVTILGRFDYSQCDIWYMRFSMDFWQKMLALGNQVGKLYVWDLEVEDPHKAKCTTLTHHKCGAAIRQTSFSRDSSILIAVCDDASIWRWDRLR
T1 sequence (Q15022 whole entry partner): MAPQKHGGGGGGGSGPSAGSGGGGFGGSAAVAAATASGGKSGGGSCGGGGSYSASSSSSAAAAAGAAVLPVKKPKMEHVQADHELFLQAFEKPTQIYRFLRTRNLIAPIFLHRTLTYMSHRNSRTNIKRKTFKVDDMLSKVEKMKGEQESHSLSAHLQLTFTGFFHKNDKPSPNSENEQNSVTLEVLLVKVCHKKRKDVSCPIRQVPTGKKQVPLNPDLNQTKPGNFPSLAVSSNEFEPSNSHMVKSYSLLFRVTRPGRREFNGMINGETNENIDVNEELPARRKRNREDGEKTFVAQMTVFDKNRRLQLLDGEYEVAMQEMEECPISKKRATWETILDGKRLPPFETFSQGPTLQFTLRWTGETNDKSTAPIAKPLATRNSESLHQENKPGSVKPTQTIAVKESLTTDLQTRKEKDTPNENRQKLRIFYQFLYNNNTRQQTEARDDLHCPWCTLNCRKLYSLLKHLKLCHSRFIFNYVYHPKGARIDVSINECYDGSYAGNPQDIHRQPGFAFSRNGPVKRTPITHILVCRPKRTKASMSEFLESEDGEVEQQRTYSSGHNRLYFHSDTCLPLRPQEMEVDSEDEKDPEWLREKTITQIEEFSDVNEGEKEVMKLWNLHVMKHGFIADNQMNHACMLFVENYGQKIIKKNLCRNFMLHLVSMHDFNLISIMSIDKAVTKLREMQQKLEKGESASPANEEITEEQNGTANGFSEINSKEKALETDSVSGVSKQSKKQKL
T1 sequence (Q09028 whole entry partner): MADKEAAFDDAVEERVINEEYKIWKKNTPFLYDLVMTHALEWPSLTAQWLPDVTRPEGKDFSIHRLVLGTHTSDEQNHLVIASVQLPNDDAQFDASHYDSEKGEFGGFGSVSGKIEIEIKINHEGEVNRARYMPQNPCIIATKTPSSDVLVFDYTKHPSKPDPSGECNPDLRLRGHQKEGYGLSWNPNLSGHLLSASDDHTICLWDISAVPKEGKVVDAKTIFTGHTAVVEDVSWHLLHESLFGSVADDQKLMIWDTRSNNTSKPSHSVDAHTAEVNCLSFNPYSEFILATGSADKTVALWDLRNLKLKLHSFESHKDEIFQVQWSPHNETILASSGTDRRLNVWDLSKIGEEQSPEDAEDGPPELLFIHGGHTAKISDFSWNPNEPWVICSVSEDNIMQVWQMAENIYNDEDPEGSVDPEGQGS
T1 sequence (Q6ZN18 whole entry partner): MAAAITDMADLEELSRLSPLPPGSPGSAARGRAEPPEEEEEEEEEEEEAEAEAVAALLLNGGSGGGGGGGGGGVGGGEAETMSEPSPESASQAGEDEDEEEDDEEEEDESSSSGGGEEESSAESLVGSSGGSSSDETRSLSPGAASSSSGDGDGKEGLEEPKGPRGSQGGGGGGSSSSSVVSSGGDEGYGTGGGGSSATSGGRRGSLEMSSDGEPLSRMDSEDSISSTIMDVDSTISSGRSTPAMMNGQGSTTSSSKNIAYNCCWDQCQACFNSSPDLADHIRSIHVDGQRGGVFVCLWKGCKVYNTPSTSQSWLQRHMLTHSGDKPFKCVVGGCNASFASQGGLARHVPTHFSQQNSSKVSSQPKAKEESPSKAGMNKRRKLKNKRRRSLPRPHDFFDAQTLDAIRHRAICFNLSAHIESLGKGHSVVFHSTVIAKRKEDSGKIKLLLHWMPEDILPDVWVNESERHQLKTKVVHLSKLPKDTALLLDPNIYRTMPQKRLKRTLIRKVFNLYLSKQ
Text: PRC2 Complex (Ezh2y641f) Activity Assay of the Compounds:
Test Method: Homogeneous Time-Resolved Fluorescence (HTRF)
Materials: PRC2 complex (EZH2 Y641F/EED/SUZ12/RbAp48/AEBP2) histone methyltransferase used in the test was purchased from Cisbio; substrate H3(1-50) K27me1 was a product of GL Biochem; methyl donor S-(5′-Adenosyl)-L-methionine chloride dihydrochloride (SAM) was purchased from Sigma-aldrich; Eu-labeled H3K27me3, Streptavidin-XL665 and the buffer used in the test were purchased from Cisbio.
Experiment method: PRC2 complex (EZH2 Y641F/EED/SUZ12/RbAp48/AEBP2), H3(1-50)me1 substrate, methyl donor SAM and the test compound were added to each well to reach a total of 10 μL reaction system and reacted in dark at room temperature for 4h. 5 μL of Eu-labeled H3K27 Me3 antibody and 5 μL of Streptavidin-XL665 were added to each well, mixed uniformly, and incubated at room temperature for 1 h. The fluorescence values at 620 nm and 665 nm were measured with a multi-label microplate analysis system (PerkinElmer Envision), and the HTRF signal ratio (665 nm/620 nm) was calculated for each well. The IC50 values of the compounds were calculated using SoftMax Pro 5.4.1 software.

For orientation: IC50 means the concentration that gives 50% inhibition. `COc1cc(C)[nH]c(=O)c1CNC(=O)c1cc2c(-c3ccnc(N(C)C)c3)ccn2c(C(C)=C2CCN(CC(F)(F)F)CC2)c1C` [compound 4, 1-(2-(dimethylamino)pyridin-4-yl)-N-((4-methoxy-6-methyl-2-oxo-1,2-dihydropyridine-3-yl)methyl)-6-methyl-5-(1-(1-(2,2,2-trifluoroethyl)piperidin-4-alkenylene)ethyl)indolizine-7-formamide]: the IC50 was 8.82 nM.

As for `C=C(c1c(C)c(C(=O)NCc2c(OC)cc(C)[nH]c2=O)cc2c(-c3ccc(C)nn3)ccn12)N1CCN(CC(F)(F)F)CC1` [compound 3, N-((4-methoxy-6-methyl-2-oxo-1,2-dihydropyridin-3-yl)methyl)-6-methyl-1-(6-methylpyridazin-3-yl)-5-(1-(4-(2,2,2-trifluoroethyl)piperazin-1-yl)vinyl)indolizine-7-carboxamide], the IC50 was found to be 4.91 nM.

As for `CC=C(c1c(C)c(C(=O)NCc2c(OC)cc(C)[nH]c2=O)cc2c(-c3ccnc(N(C)C)c3)ccn12)N1CCOCC1` [compound 1, 1-(2-(dimethylamino)pyridin-4-yl)-N-((4-methoxy-6-methyl-2-oxo-1,2-dihydropyridin-3-yl)methyl)-6-methyl-5-(1-morpholinylpropyl-1-en-1-yl)indolizine-7-formamide], the half-maximal inhibitory concentration (IC50) is 11.4 nM.

On to `CNc1cc(-c2ccn3c(C(C)=C4CCN(CC(F)(F)F)CC4)c(C)c(C(=O)NCc4c(OC)cc(C)[nH]c4=O)cc23)ccn1` [compound 5, N-((4-methoxy-6-methyl-2-oxo-1,2-dihydropyridin-3-yl)methyl)-6-methyl-1-(2-(methylamino)pyridin-4-yl)-5-(1-(1-(2,2,2-trifluoroethyl)piperidin-4-alkenylene)ethyl)indolizine-7-carboxamide], for which the IC50 is 6.73 nM.
